Assay results from patent publication US20250271426A1, “REDUCTION OF BITTER TASTE OF ACTIVE PHARMACEUTICAL INGREDIENTS AND RELATED ASSAYS AND SCREENING METHODS” (Firmenich Incorporated, priority 2022, published 2025).

Columns and labels:
Assay in all cases: FLIPR calcium assay, cells with promiscuous G protein transfected with bitter receptor cDNA
Assay type in all cases: cell-based
Conditions in all cases: responsive if cellular response of >10% over baseline, Fluo4-AM
[1] = biological target: T1, T2R receptor SEQ ID NO: 1 (S1) (Homo sapiens, UniProt Q9NYW7)
T1 construct: expressed in transfected cells; host or cells: cells expressing a promiscuous G protein (e.g., G16g44)
T1 sequence (Q9NYW7 1-299): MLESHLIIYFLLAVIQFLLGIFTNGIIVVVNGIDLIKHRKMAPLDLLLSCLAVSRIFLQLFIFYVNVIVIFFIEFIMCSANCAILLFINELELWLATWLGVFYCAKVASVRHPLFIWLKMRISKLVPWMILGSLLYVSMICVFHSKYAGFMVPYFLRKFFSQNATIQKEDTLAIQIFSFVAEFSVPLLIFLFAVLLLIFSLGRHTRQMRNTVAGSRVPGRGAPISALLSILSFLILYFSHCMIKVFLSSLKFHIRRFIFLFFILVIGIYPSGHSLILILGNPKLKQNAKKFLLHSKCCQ
How it was run: (§1)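 Transfect G16g44-expressing cells, one T2R per well; incubate 28 h. Load Fluo4-AM 60 min, wash. Stimulate with bitter agonist, record Ca fluorescence on FLIPR. Hit = >10% over baseline.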

[2] = biological target: T2, T2R receptor SEQ ID NO: 2 (S2) (Homo sapiens, UniProt Q9NYW2)
T2 construct: expressed in transfected cells; host or cells: cells expressing a promiscuous G protein (e.g., G16g44)
T2 sequence (Q9NYW2 1-309): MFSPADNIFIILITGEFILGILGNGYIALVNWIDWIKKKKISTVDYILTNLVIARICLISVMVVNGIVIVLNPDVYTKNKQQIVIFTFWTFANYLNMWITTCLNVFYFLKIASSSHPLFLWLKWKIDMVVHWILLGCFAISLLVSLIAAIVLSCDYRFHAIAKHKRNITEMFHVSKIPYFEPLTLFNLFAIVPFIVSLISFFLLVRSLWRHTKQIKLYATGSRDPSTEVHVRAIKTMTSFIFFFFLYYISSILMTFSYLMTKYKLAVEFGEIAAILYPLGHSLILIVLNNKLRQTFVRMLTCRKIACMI
How it was run: as §1

[3] = biological target: T3, T2R receptor SEQ ID NO: 3 (S3) (Homo sapiens, UniProt Q9NYW0, T156M)
T3 construct: expressed in transfected cells; host or cells: cells expressing a promiscuous G protein (e.g., G16g44)
T3 sequence (Q9NYW0 1-307 T156M): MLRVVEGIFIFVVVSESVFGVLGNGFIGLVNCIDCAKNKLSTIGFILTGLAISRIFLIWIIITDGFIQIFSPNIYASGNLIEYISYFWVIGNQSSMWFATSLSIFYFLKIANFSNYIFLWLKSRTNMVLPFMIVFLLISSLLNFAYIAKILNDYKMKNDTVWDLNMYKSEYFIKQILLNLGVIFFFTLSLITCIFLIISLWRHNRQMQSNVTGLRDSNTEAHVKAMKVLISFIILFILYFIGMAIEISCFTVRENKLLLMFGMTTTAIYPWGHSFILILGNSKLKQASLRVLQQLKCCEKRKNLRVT
How it was run: as §1

[4] = biological target: T4, T2R receptor SEQ ID NO: 4 (S4) (Homo sapiens, UniProt Q9NYV8)
T4 construct: expressed in transfected cells; host or cells: cells expressing a promiscuous G protein (e.g., G16g44)
T4 sequence (Q9NYV8 1-317): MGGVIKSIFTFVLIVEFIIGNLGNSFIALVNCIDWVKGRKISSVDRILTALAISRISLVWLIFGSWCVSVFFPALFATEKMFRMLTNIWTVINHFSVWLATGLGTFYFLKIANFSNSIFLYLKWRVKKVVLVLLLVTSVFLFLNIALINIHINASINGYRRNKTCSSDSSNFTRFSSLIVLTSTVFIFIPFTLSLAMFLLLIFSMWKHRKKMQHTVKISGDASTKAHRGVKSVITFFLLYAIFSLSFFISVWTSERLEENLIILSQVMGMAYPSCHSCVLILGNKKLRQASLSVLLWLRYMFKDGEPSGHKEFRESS
How it was run: as §1

[5] = biological target: T5, T2R receptor SEQ ID NO: 5 (S5) (Homo sapiens, UniProt P59534)
T5 construct: expressed in transfected cells; host or cells: cells expressing a promiscuous G protein (e.g., G16g44)
T5 sequence (P59534 18-338): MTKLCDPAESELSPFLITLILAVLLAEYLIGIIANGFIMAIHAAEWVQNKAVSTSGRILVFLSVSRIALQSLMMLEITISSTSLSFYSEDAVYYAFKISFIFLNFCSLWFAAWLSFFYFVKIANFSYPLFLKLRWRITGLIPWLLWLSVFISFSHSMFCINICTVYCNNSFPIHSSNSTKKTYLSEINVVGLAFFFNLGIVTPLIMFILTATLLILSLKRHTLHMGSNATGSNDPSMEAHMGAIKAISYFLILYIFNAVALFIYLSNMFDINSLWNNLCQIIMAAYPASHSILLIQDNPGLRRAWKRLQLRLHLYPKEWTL
How it was run: as §1

[6] = biological target: T6, T2R receptor SEQ ID NO: 6 (S6) (Homo sapiens, UniProt P59540)
T6 construct: expressed in transfected cells; host or cells: cells expressing a promiscuous G protein (e.g., G16g44)
T6 sequence (P59540 1-309): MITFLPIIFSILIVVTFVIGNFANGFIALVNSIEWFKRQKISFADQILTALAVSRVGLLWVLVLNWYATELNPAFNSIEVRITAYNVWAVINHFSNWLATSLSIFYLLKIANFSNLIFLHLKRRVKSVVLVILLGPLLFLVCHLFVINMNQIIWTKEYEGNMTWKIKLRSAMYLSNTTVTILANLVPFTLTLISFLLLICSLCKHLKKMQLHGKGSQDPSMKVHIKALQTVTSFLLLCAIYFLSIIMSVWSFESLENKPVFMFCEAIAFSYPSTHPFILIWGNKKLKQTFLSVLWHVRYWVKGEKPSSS
How it was run: as §1

SMILES: O=C(O)COCCN1CCN(C(c2ccccc2)c2ccc(Cl)cc2)CC1 (centres unmarked) [Cetirizine]
- S1 positive response of T2R receptor to API [1]: + (a “+” to indicate whether a particular T2R receptor showed a positive response to a particular API)
- S2 positive response of T2R receptor to API [2]: + (a “+” to indicate whether a particular T2R receptor showed a positive response to a particular API)
- S3 positive response of T2R receptor to API [3]: + (a “+” to indicate whether a particular T2R receptor showed a positive response to a particular API)
- S4 positive response of T2R receptor to API [4]: + (a “+” to indicate whether a particular T2R receptor showed a positive response to a particular API)
- S5 positive response of T2R receptor to API [5]: + (a “+” to indicate whether a particular T2R receptor showed a positive response to a particular API)
- S6 positive response of T2R receptor to API [6]: + (a “+” to indicate whether a particular T2R receptor showed a positive response to a particular API)

SMILES: CN(C)CCOC(c1ccccc1)c1ccccc1 [Diphenhydramine]
- S1 positive response of T2R receptor to API [1]: + (a “+” to indicate whether a particular T2R receptor showed a positive response to a particular API)
- S2 positive response of T2R receptor to API [2]: + (a “+” to indicate whether a particular T2R receptor showed a positive response to a particular API)
- S3 positive response of T2R receptor to API [3]: + (a “+” to indicate whether a particular T2R receptor showed a positive response to a particular API)
- S4 positive response of T2R receptor to API [4]: + (a “+” to indicate whether a particular T2R receptor showed a positive response to a particular API)
- S5 positive response of T2R receptor to API [5]: + (a “+” to indicate whether a particular T2R receptor showed a positive response to a particular API)
- S6 positive response of T2R receptor to API [6]: + (a “+” to indicate whether a particular T2R receptor showed a positive response to a particular API)

SMILES: CN(C)CCOC(C)(c1ccccc1)c1ccccn1 (centres unmarked) [Doxylamine]
- S1 positive response of T2R receptor to API [1]: + (a “+” to indicate whether a particular T2R receptor showed a positive response to a particular API)
- S2 positive response of T2R receptor to API [2]: + (a “+” to indicate whether a particular T2R receptor showed a positive response to a particular API)
- S3 positive response of T2R receptor to API [3]: + (a “+” to indicate whether a particular T2R receptor showed a positive response to a particular API)
- S4 positive response of T2R receptor to API [4]: + (a “+” to indicate whether a particular T2R receptor showed a positive response to a particular API)
- S5 positive response of T2R receptor to API [5]: + (a “+” to indicate whether a particular T2R receptor showed a positive response to a particular API)
- S6 positive response of T2R receptor to API [6]: + (a “+” to indicate whether a particular T2R receptor showed a positive response to a particular API)

SMILES: COc1ccccc1OCC(O)CO (centres unmarked) [Guaifenesin]
- S1 positive response of T2R receptor to API [1]: + (a “+” to indicate whether a particular T2R receptor showed a positive response to a particular API)
- S2 positive response of T2R receptor to API [2]: + (a “+” to indicate whether a particular T2R receptor showed a positive response to a particular API)
- S3 positive response of T2R receptor to API [3]: + (a “+” to indicate whether a particular T2R receptor showed a positive response to a particular API)
- S4 positive response of T2R receptor to API [4]: + (a “+” to indicate whether a particular T2R receptor showed a positive response to a particular API)
- S5 positive response of T2R receptor to API [5]: + (a “+” to indicate whether a particular T2R receptor showed a positive response to a particular API)

SMILES: CC[N+](C)(CC)CCOC(=O)C(O)(c1ccccc1)C1CCCCC1 (centres unmarked) [Oxyphenonium]
- S1 positive response of T2R receptor to API [1]: + (a “+” to indicate whether a particular T2R receptor showed a positive response to a particular API)
- S2 positive response of T2R receptor to API [2]: + (a “+” to indicate whether a particular T2R receptor showed a positive response to a particular API)
- S3 positive response of T2R receptor to API [3]: + (a “+” to indicate whether a particular T2R receptor showed a positive response to a particular API)
- S5 positive response of T2R receptor to API [5]: + (a “+” to indicate whether a particular T2R receptor showed a positive response to a particular API)
- S6 positive response of T2R receptor to API [6]: + (a “+” to indicate whether a particular T2R receptor showed a positive response to a particular API)

SMILES: CCOC(=O)[C@H](CCc1ccccc1)N[C@@H](C)C(=O)N1CCC[C@H]1C(=O)O [Enalapril]
- S1 positive response of T2R receptor to API [1]: + (a “+” to indicate whether a particular T2R receptor showed a positive response to a particular API)
- S2 positive response of T2R receptor to API [2]: + (a “+” to indicate whether a particular T2R receptor showed a positive response to a particular API)
- S4 positive response of T2R receptor to API [4]: + (a “+” to indicate whether a particular T2R receptor showed a positive response to a particular API)
- S5 positive response of T2R receptor to API [5]: + (a “+” to indicate whether a particular T2R receptor showed a positive response to a particular API)
- S6 positive response of T2R receptor to API [6]: + (a “+” to indicate whether a particular T2R receptor showed a positive response to a particular API)

SMILES: O=C(N[C@H](CO)[C@H](O)c1ccc([N+](=O)[O-])cc1)C(Cl)Cl [Chloramphenicol]
- S1 positive response of T2R receptor to API [1]: + (a “+” to indicate whether a particular T2R receptor showed a positive response to a particular API)
- S2 positive response of T2R receptor to API [2]: + (a “+” to indicate whether a particular T2R receptor showed a positive response to a particular API)
- S3 positive response of T2R receptor to API [3]: + (a “+” to indicate whether a particular T2R receptor showed a positive response to a particular API)
- S5 positive response of T2R receptor to API [5]: + (a “+” to indicate whether a particular T2R receptor showed a positive response to a particular API)
- S6 positive response of T2R receptor to API [6]: + (a “+” to indicate whether a particular T2R receptor showed a positive response to a particular API)
